Measured values from patent US6337338B1, “Heteroaryl-aryl ureas as IGF-1 receptor antagonists” (Telik, Inc., priority 1998, dated 2002).

Assays:
[1] = test system: MCF-7 or MCF-10 cells; assay: Cell proliferation assay (CellTiter 96, MTS); assay type: cell-based; conditions: 1 nM IGF-1, 48 h, FIG. 2
Method: 5000 cells (MCF-7 or MCF-10) were plated into 96 well plates and grown for 24 h as in Example 4, above. Cells were washed in serum free DMEM, then 100 μl media and 1 nM IGF-1 were added to wells in the presence of or absence of compound 5 (see Example 2) and hormone. After 48 h, viability was determined by CellTiter 96™ (Promega). This kit is a chromogenic bioassay procedure for the measurement of cell proliferation. Briefly, 20 μl (3-[4,5,dimethylthiazol-2-yl]-5-[3-carboxymethoxyphenyl]-2-[4-sulfophenyl]-2H-tetrazolium, inner salt (MTS) was added to each well and incubation was continued for 3-4 h. Viable cells reduced the MTS to formazan, which was then measured at 492 nm using an ELISA plate reader. Cell proliferation was calculated based on the increase in the number of viable cells.

[2] = test system: MCF-10 cells; assay: Cell growth inhibition study by protein assay, MCF-10; assay type: cell-based; conditions: 1 nM IGF-I, FIG. 1a
Method: MFC-10 cells were plated as above in DMEM/Ham's F12 medium (DMEM/F12) supplemented with 5% horse serum, 8 ng/ml epidermal growth factor (EGF), 0.5 μg/ml hydrocortisone, 0.1 μg/mL cholera toxin. After 24 hr, cells were washed twice in serum free DMEM/F12, then 0.5 ml DMEM/12 with 0.5% horse serum added with or without test compound, and in the […] of 1 nM IGF-I.

[3] = molecular target: T1, IGF-1R-cytoplasmic kinase domain (IGF-1R-CKD; amino acids 959-1367 of IGF-1R) (Homo sapiens, UniProt P08069); assay: IGF-1R substrate assay (KS2 phosphorylation); assay type: biochemical; conditions: compounds 50 μM; 50 μM ATP; KS2-biotin substrate
T1 construct: amino acids 959-1367 of IGF-1R
T1 sequence (P08069 959-1367): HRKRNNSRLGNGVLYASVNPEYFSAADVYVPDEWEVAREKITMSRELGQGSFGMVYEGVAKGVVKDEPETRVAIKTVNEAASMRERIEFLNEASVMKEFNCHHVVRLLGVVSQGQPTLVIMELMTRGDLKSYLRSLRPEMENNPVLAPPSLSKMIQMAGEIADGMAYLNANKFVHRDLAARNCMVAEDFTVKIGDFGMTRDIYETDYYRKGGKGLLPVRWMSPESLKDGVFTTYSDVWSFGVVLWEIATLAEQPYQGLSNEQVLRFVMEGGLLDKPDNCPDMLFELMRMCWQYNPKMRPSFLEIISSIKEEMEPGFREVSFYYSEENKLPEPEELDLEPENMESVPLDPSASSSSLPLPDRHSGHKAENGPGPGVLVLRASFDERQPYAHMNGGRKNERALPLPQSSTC
Method: Nunc Maxisorp plates were coated with 100 μL 10 μg/mL-streptavidin at […] The plates were washed in 20 mM Tris pH7.6, 150 mM NaCl, 0.05% Tween 20, 0.8 mM Na3VO4, and 0.04% Biocide between all steps of the assay. The plates were blocked in 200 μL 50 mM Hepes/150 mM NaCl/0.1% Triton-X 100 overnight at 4° C. or for 2 hr at 25-37° C.
Aliquots of the IGF-1R-cytoplasmic kinase domain (IGF-1R-CKD; amino acids 959-1367 of IGF-1R) were purified and stored at −80° C. until use. KS2 (GPWLEEEEEAYGWMDF; SEQ ID NO:1), gastrin (1-17) that is a substrate for many tyrosine kinases including the insulin receptor, was synthesized as a biotin conjugate (KS2-biotin) (Baldwin et al., Nature, 301:435-37 (1983)). The assay mixture consisted of 0.2 μg/mL IGF-1R-CKD (concentration adjusted for optimal response), 300-900 nM KS2-biotin (depending on optimal response), 2 mM […], 5 mM MgCl2 (4-10 mM […] can be substituted), compounds to be tested (50 μM) or their vehicle, and 50 μM ATP. The start of phosphorylation begins with the addition of ATP. Incubation was continued for 10-30 minutes, at which time, the reaction was stopped through the quenching the metals with 20 mM EDTA (final concentration).
The reaction was diluted 1:10 in buffer A (2 mM HEPES pH 7.6, 0.05% Triton X-100, 0.05% bovine serum albumin (BSA)) and 100 μL was captured onto washed, coated and blocked, streptavidin Nunc Maxisorp plate, overnight at 4° C. or 2 hr at 37° C. Anti-phosphotyrosine antibody (12.5 ng/well) conjugated to horseradish peroxidase (RC20:HRPO by Transduction Laboratories ) was diluted into 0.5X Buffer B (25 mM Hepes pH7.6, 75 mM NaCl, 0.025% Tween 20, 2 mM Na3VO4+1% BSA) and incubated for 1.5 to 2 hr at 25° C. The phosphorylated substrate was measured by developing the plate with 100 μL 3′, 3′, 5,5′ tetramethylbenzidine (TMB), and quantified using a plate reader.

[4] = test system: MCF-7 cells; assay: Cell growth inhibition study by protein assay, MCF-7; assay type: cell-based; conditions: 1 nM IGF-1, 48 h, FIG. 1b
Method: 100,000 cells (MCF-7) were plated into 24 well dishes, and grown in complete Dulbecco's modified Eagle's medium (DMEM) supplemented with 10% fetal calf serum (FCS) for 24 h. Cells were washed twice in serum-free DMEM, then 0.5 ml DMEM supplemented with 0^5% FCS […] was added with or without a heteroaryl-aryl compound, compound 5, and in the presence or absence of 1 nM hormone (IGF-1 or insulin, respectively). After 48 h at 37° C., cells were washed twice with phosphate buffered saline (PBS) then solubilized in 0.03% sodium dodecyl sulfate (SDS). Protein was determined using the BCA Protein Assay reagent from Pierce Chemical with BSA serving as a standard.

| Compound | inhibition at 50 µM [3] | further results |
| --- | --- | --- |
| COc1c(Cl)cccc1NC(=O)Nc1cc(C)nc2ccccc12 [Compound 5, N-(2-methoxy-3-chlorophenyl)-N′-(2-methyl-4-quinolinyl) urea] | 21% | IGF-1R stimulated cell proliferation [1]: decrease in IGF-1R stimulated cell proliferation; IGF-1 stimulated cell growth (protein assay) [2]: inhibit IGF-1 stimulated cell growth; IGF-1 stimulated cell growth (protein assay) [4]: inhibit IGF-1 stimulated cell growth |
| COc1ccc(Cl)cc1NC(=O)Nc1cc(C)nc2ccccc12 [Compound 7, N-(2-methoxy-5-chlorophenyl)-N′-(2-methyl-4-quinolinyl) urea] | 23% | – |
| Cc1ccc(NC(=O)Nc2cnc3ccccc3c2)cc1Cl [Compound 8, N-(3-chloro-4-methylphenyl)-N′-(3-quinolinyl) urea] | 65% | – |
| CCc1ccc(NC(=O)Nc2cccc3cccnc23)cc1 [Compound 9, N-(4-ethylphenyl)-N′-(8-quinolinyl) urea] | 33% | – |
| O=C(Nc1cccc(Cl)c1)Nc1cnc2ccccc2c1 [Compound 10, N-(3-chlorophenyl)-N′-(3-quinolinyl) urea] | 26% | – |
| COc1c(Cl)cccc1NC(=O)Nc1nccs1 [Compound 11, N-(2-methoxy-3-chlorophenyl)-N′-(1,3-thiazol-2-yl) urea] | 21% | – |
| Cc1ccc(NC(=O)Nc2nccs2)cc1Cl [Compound 12, N-(3-chloro-4-methylphenyl)-N′-(1,3-thiazol-2-yl) urea] | 21% | – |
| COc1ccccc1NC(=O)Nc1nccs1 [Compound 13, N-(2-methoxyphenyl)-N′-(1,3-thiazol-2-yl) urea] | 20% | – |
| O=C(Nc1cc(Cl)cc(Cl)c1)Nc1nccs1 [Compound 14, N-(3,5-dichlorophenyl)-N′-(1,3-thiazol-2-yl) urea] | 17% | – |
